Measured values: US20070219224A1, “Compositions and Methods Relating to Pyrimidine Synthesis Inhibitors” (UAB RESEARCH FOUNDATION, THE, priority 2004, published 2007)
Marks after values point to notes of the source that are not given here.

Assays:
RSV-infected BALB/c mice = test: Nasal potential difference (NPD, NPDAMIL); type: in vivo; conditions: leflunomide throughout the infection period
Description: Measurement of nasal potential difference. The potential difference across the nares of anesthetized mice (with the tail as reference) was measured as previously described Grubb et al., (1994) “Hyperabsorption of Na+ and raised Ca(2+)-mediated Cl-secretion in nasal epithelia of CF mice,” Am. J. Physiol 266:C1478-C1483. A baseline NPD was recorded during perfusion of the nasal epithelium with lactated Ringer's solution. The amiloride-sensitive component of NPD (NPDAMIL) was determined by perfusion with lactated Ringer's solution containing 100 μM amiloride. Current pulses of ±60 nA were applied across the epithelium by a 12V battery in series with a 200 MΩ resistor. Changes in NPD in response to the current pulses (proportional to nasal transepithelial resistance, NRte) were recorded (ΔNPD).
Systemic inhibition of de novo pyrimidine and purine synthesis. Leflunomide (5-methylisoxazole-4-[4-trifluoromethyl]carboxanilide, 35 mg/kg in distilled water containing 1% methylcellulose) was administered once daily by oral gavage in a volume of 300 μl/mouse for 8 days prior to infection, then throughout the infection period. Vehicle controls were gavaged with an equivalent volume of 1% methylcellulose in distilled water. Uridine (1 g/kg in 0.9% NaCl) was administered by i.p. injection every 12 hours in a volume of 100 μl (8). […]

[1] = test system: IFN-α, IL-1β, KC, TNF-α in BALF; test: Measurement of proinflammatory cytokines in BALF (ELISA); type: in vivo, BALB/c mice; conditions: RSV-infected mice, d2
Description: Preparation of viral inocula and infection of mice. Preparation of viral stocks and intranasal infection of eight to twelve week-old pathogen-free BALB/c mice of either sex with RSV strain A2 (10^6 PFU in 100 μl) were performed as described in Davis et al., “Nucleotide-mediated inhibition of alveolar fluid clearance in BALB/c mice after respiratory syncytial virus infection,” Am. J. Physiol. Lung Cell Mol. Physiol. 286:L112-L120. (2004). Data for each experimental group was derived from a minimum of 2 independent infections.
Bronchoalveolar lavage. Bronchoalveolar lavage fluid (BALF) was collected as previously described in Davis et al., (2004), using 1 ml of sterile normal saline for cytokine ELISAs, or 0.3 ml of sterile saline for nucleotide assays. Lavagates were centrifuged to remove cells and supernatants stored at −80° C.
Systemic inhibition of de novo pyrimidine and purine synthesis. Leflunomide (5-methylisoxazole-4-[4-trifluoromethyl]carboxanilide, 35 mg/kg in distilled water containing 1% methylcellulose) was administered once daily by oral gavage in a volume of 300 μl/mouse for 8 days prior to infection, then throughout the infection period. Vehicle controls were gavaged with an equivalent volume of 1% methylcellulose in distilled water. […].
Measurement of proinflammatory cytokines in BALF. Cytokine levels were determined using Quantikine M ELISA kits (R & D Systems), in accordance with manufacturer's instructions.

Cc1oncc1C(=O)Nc1ccc(C(F)(F)F)cc1 [Leflunomide, 5-methylisoxazole-4-[4-trifluoromethyl]carboxanilide]
basal NPD and NPDAMIL (RSV-infected BALB/c mice): completely prevented RSV-induced declines in basal NPD and NPDAMIL | BALF proinflammatory cytokine levels (IFN-α, IL-1β, KC, TNF-α) (in words) [1]: significantly reduced | BALF proinflammatory cytokine levels (IFN-α, IL-1β, KC, TNF-α) (in words) ([1]; listed as LEF): significant reduction | IFN-α, mean cytokine concentration in BALF ± SE ([1]; systemic treatment): 72 ± 12 pg/mL | IL-1β, mean cytokine concentration in BALF ± SE ([1]; systemic treatment): 20 ± 8 pg/mL | KC, mean cytokine concentration in BALF ± SE ([1]; systemic treatment): 425 ± 58 pg/mL | TNF-α, mean cytokine concentration in BALF ± SE ([1]; systemic treatment): 0*** pg/ml
